# Measurements published in patent publication US20260256792A1, “TREATMENT OF CHRONIC SPONTANEOUS URTICARIA BY ADMINISTERING (R)-2-[3-[4-AMINO-3-(2-FLUORO-4-PHENOXY-PHENYL)PYRAZOLO[3,4-D]PYRIMIDIN-1-YL]PIPERIDINE-1-CARBONYL]-4-METHYL-4-[4-(OXETAN-3-YL)PIPERAZIN-1-YL]PENT-2-ENENITRILE” (priority 2023, published 2026).
# System: angioedema in CSU patients
# Experiment: Phase 2 CSU study: angioedema activity score over 7 days (AAS7)
# Assay type: in vivo, human
# Conditions: 400 mg BID; for AAS7 = 0, OR (95% CI) for rilzabrutinib vs. placebo / AAS7 = 0, RRD (%) for rilzabrutinib vs. placebo (95% CI) / AAS7 Post-baseline Mean (SD) / Participants with AAS7 = 0, Responder n (%) / AAS7 % Change difference for rilzabrutinib vs. placebo LS Mean (95% CI) / AAS7 % Change from baseline LS Mean (SE) / AAS7 Change difference for rilzabrutinib vs. placebo LS Mean (95% CI) / AAS7 Change from baseline LS Mean (SE) / AAS7 = 0, Non-responder n (%): angioedema at baseline; for Non-responder n (%), AAS7 = 0 / OR (95% CI) for rilzabrutinib vs. placebo, AAS7 = 0 / Responder n (%), AAS7 = 0 / RRD (%) for rilzabrutinib vs. placebo (95% CI), AAS7 = 0: outlier removed
# Description: The study comprises a 12 week, randomized, double-blind, placebo-controlled, multi-center, dose-ranging efficacy and safety phase, followed by a 40 week open label extension (OLE) phase (see FIG. 1). The study consists of three phases and an optional OLE phase. […] The weekly angioedema activity score (AAS7) was proposed as a tertiary endpoint. […] Patients were to complete the AAS using the e-diary. The e-diary was to be used once daily on the same time of each day recording of participant's answers to the angioedema activity score over 7 days (AAS7) questionnaire.
smiles,measurement,setting,value
"CC(C)(C=C(C#N)C(=O)N1CCC[C@@H](n2nc(-c3ccc(Oc4ccccc4)cc3F)c3c(N)ncnc32)C1)N1CCN(C2COC2)CC1 [rilzabrutinib, (R)-2-[3-[4-amino-3-(2-fluoro-4-phenoxy-phenyl)pyrazolo[3,4-d]pyrimidin-1-yl]piperidine-1-carbonyl]-4-methyl-4-[4-(oxetan-3-yl)piperazin-1-yl]pent-2-enenitrile]","AAS7 = 0, OR (95% CI) for rilzabrutinib vs. placebo","Week 4, omalizumab-naïve",2.118
same,"AAS7 = 0, RRD (%) for rilzabrutinib vs. placebo (95% CI)","Week 4, omalizumab-naïve",16.8 %
same,AAS7 Post-baseline Mean (SD),"Week 4, omalizumab-naïve",14.79 (17.89)
same,"Participants with AAS7 = 0, Responder n (%)","Week 4, omalizumab-naïve",11 (42.3) n (%)
same,AAS7 % Change difference for rilzabrutinib vs. placebo LS Mean (95% CI),"Week 5, ITT","−14.36 (−40.13, 11.41) %"
same,AAS7 % Change from baseline LS Mean (SE),"Week 5, ITT",−68.19 (10.08) %
same,AAS7 Change difference for rilzabrutinib vs. placebo LS Mean (95% CI),"Week 5, ITT","−6.53 (−17.51, 4.44)"
same,AAS7 Change from baseline LS Mean (SE),"Week 5, ITT",−36.13 (4.29)
same,AAS7 Post-baseline Mean (SD),"Week 5, ITT",12.95 (20.09)
same,"Non-responder n (%), AAS7 = 0","Week 5, omalizumab-naïve",14 (40.0) n (%)
same,"OR (95% CI) for rilzabrutinib vs. placebo, AAS7 = 0","Week 5, omalizumab-naïve",1.574
same,"Responder n (%), AAS7 = 0","Week 5, omalizumab-naïve",21 (60.0) n (%)
same,AAS7 % Change difference for rilzabrutinib vs. placebo LS Mean (95% CI),"Week 5, omalizumab-naïve","−10.97 (−38.45, 16.50) %"
same,"AAS7 = 0, Non-responder n (%)","Week 5, omalizumab-naïve",13 (50.0) n (%)
same,"AAS7 = 0, OR (95% CI) for rilzabrutinib vs. placebo","Week 5, omalizumab-naïve",2.390
same,"AAS7 = 0, RRD (%) for rilzabrutinib vs. placebo (95% CI)","Week 5, omalizumab-naïve",22.3 %
same,AAS7 Post-baseline Mean (SD),"Week 5, omalizumab-naïve",13.98 (20.55)
same,"Participants with AAS7 = 0, Responder n (%)","Week 5, omalizumab-naïve",13 (50.0) n (%)
same,AAS7 % Change difference for rilzabrutinib vs. placebo LS Mean (95% CI),"Week 6, ITT","−23.55 (−50.40, 3.31) %"
same,AAS7 Change difference for rilzabrutinib vs. placebo LS Mean (95% CI),"Week 6, ITT","−10.15 (−21.84, 1.54)"
same,AAS7 Change from baseline LS Mean (SE),"Week 6, ITT",−36.76 (4.50)
same,AAS7 Post-baseline Mean (SD),"Week 6, ITT",12.28 (18.70)
same,"Non-responder n (%), AAS7 = 0","Week 6, omalizumab-naïve",17 (48.6) n (%)
same,"OR (95% CI) for rilzabrutinib vs. placebo, AAS7 = 0","Week 6, omalizumab-naïve",1.118
same,"RRD (%) for rilzabrutinib vs. placebo (95% CI), AAS7 = 0","Week 6, omalizumab-naïve",2.9 %
same,"Responder n (%), AAS7 = 0","Week 6, omalizumab-naïve",18 (51.4) n (%)
same,AAS7 % Change difference for rilzabrutinib vs. placebo LS Mean (95% CI),"Week 6, omalizumab-naïve","−20.62 (−49.95, 8.72) %"
same,"AAS7 = 0, Non-responder n (%)","Week 6, omalizumab-naïve",15 (57.7) n (%)
same,"AAS7 = 0, OR (95% CI) for rilzabrutinib vs. placebo","Week 6, omalizumab-naïve",1.828
same,"AAS7 = 0, RRD (%) for rilzabrutinib vs. placebo (95% CI)","Week 6, omalizumab-naïve",13.6 %
same,AAS7 Post-baseline Mean (SD),"Week 6, omalizumab-naïve",13.26 (19.12)
same,"Participants with AAS7 = 0, Responder n (%)","Week 6, omalizumab-naïve",11 (42.3) n (%)
same,AAS7 % Change difference for rilzabrutinib vs. placebo LS Mean (95% CI),"Week 7, ITT","−25.42 (−54.97, 4.13) %"
same,AAS7 % Change from baseline LS Mean (SE),"Week 7, ITT",−71.37 (11.45) %
same,AAS7 Change from baseline LS Mean (SE),"Week 7, ITT",−37.72 (4.37)
same,AAS7 Post-baseline Mean (SD),"Week 7, ITT",13.39 (19.19)
same,"Non-responder n (%), AAS7 = 0","Week 7, omalizumab-naïve",18 (51.4) n (%)
same,"OR (95% CI) for rilzabrutinib vs. placebo, AAS7 = 0","Week 7, omalizumab-naïve",1.022
same,"RRD (%) for rilzabrutinib vs. placebo (95% CI), AAS7 = 0","Week 7, omalizumab-naïve",0.6 %
same,"Responder n (%), AAS7 = 0","Week 7, omalizumab-naïve",17 (48.6) n (%)
same,AAS7 % Change difference for rilzabrutinib vs. placebo LS Mean (95% CI),"Week 7, omalizumab-naïve","−23.13 (−55.14, 8.88) %"
same,AAS7 % Change from baseline LS Mean (SE),"Week 7, omalizumab-naïve",−70.13 (12.07) %
same,"AAS7 = 0, Non-responder n (%)","Week 7, omalizumab-naïve",15 (57.7) n (%)
same,"AAS7 = 0, OR (95% CI) for rilzabrutinib vs. placebo","Week 7, omalizumab-naïve",1.515
same,AAS7 Post-baseline Mean (SD),"Week 7, omalizumab-naïve",14.38 (19.63)
same,"Participants with AAS7 = 0, Responder n (%)","Week 7, omalizumab-naïve",11 (42.3) n (%)
same,AAS7 % Change difference for rilzabrutinib vs. placebo LS Mean (95% CI),"Week 8, ITT","−29.34 (−59.45, 0.76) %"
same,AAS7 % Change from baseline LS Mean (SE),"Week 8, ITT",−81.40 (11.62) %
same,AAS7 Change difference for rilzabrutinib vs. placebo LS Mean (95% CI),"Week 8, ITT","−13.31 (−24.25, −2.37)"
same,AAS7 Change from baseline LS Mean (SE),"Week 8, ITT",−41.63 (4.21)
same,AAS7 Post-baseline Mean (SD),"Week 8, ITT",9.20 (16.24)
same,"Non-responder n (%), AAS7 = 0","Week 8, omalizumab-naïve",14 (40.0) n (%)
same,"OR (95% CI) for rilzabrutinib vs. placebo, AAS7 = 0","Week 8, omalizumab-naïve",1.991
same,"RRD (%) for rilzabrutinib vs. placebo (95% CI), AAS7 = 0","Week 8, omalizumab-naïve",17.0 %
same,"Responder n (%), AAS7 = 0","Week 8, omalizumab-naïve",21 (60.0) n (%)
same,AAS7 % Change difference for rilzabrutinib vs. placebo LS Mean (95% CI),"Week 8, omalizumab-naïve","−30.39 (−63.25, 2.47) %"
same,AAS7 % Change from baseline LS Mean (SE),"Week 8, omalizumab-naïve",−80.38 (12.36) %
same,"AAS7 = 0, Non-responder n (%)","Week 8, omalizumab-naïve",13 (50.0) n (%)
same,"AAS7 = 0, OR (95% CI) for rilzabrutinib vs. placebo","Week 8, omalizumab-naïve",2.829
